These results are taken from ChEMBL document CHEMBL3046397, “Synthesis and Insecticidal Activity of 4-1, 2, 4-Thiadiazolin-3-ones” (J Pestic Sci, 1994).

The test system of series [1] is Spodoptera litura. The experiment in a line: Ovicidal activity against […] Spodoptera litura in paraffin paper assessed as egg mortality at 0.5 ppm at 25 degC, 65% RH measured after 7 days by egg dipping method. Type of series: functional. Conditions: 168 h.
Series [2] concerns Mythimna separata. The experiment in a line: Insecticidal activity against third-instar larvae Mythimna separata (Oriental armyworm) in compound treated maize leaves assessed as mortality at 0.1 ppm at 25 degC, 65% RH measured after 5 days by leaf dipping method. In kind it is functional. Conditions: foliar, 120 h.
Series [3] concerns Spodoptera litura. The experiment in a line: Insecticidal activity against third-instar larvae of Spodoptera litura in compound treated sweet potato leaves assessed as mortality at 0.1 ppm at 25 degC, 65% RH measured after 5 days by leaf dipping method. Particulars: foliar, 120 h. Type of series: functional.
Series [4] deals with Spodoptera litura. As to the kind of experiment: Insecticidal activity against third-instar larvae of Spodoptera litura in compound treated sweet potato leaves assessed as mortality at 31 ppm at 25 degC, 65% RH measured after 5 days by leaf dipping method. Type of series: functional. Particulars: foliar, 120 h.
For series [5], the system named is Mythimna separata. As to the kind of experiment: Insecticidal activity against third-instar larvae Mythimna separata (Oriental armyworm) in compound treated maize leaves assessed as mortality at 31 ppm at 25 degC, 65% RH measured after 5 days by leaf dipping method. Particulars: foliar, 120 h. In kind it is functional.
Series [6] has as its system Spodoptera litura. As to the kind of experiment: Ovicidal activity against […] Spodoptera litura in paraffin paper assessed as egg mortality at 125 ppm at 25 degC, 65% RH measured after 7 days by egg dipping method. Type of series: functional. Conditions: 168 h.
The test system of series [7] is Spodoptera litura. As to the kind of experiment: Ovicidal activity against […] Spodoptera litura in paraffin paper assessed as egg mortality at 8 to 16 ppm at 25 degC, 65% RH measured after 7 days by egg dipping method. In kind it is functional.
Series [8] concerns Spodoptera litura. As to the kind of experiment: Insecticidal activity against third-instar larvae of Spodoptera litura in compound treated sweet potato leaves assessed as mortality at 8 to 31 ppm at 25 degC, 65% RH measured after 5 days by leaf dipping method. In kind it is functional.
Series [9] deals with Mythimna separata. The experiment in a line: Insecticidal activity against third-instar larvae Mythimna separata (Oriental armyworm) in compound treated maize leaves assessed as mortality at 0.25 to 1 ppm at 25 degC, 65% RH measured after 5 days by leaf dipping method. In kind it is functional.
Series [10] in a line: Metabolic stability in Spodoptera litura larvae feaces. In kind it is ADME, organism-based. Particulars: faeces, read-out: Drug recovery.
Series [11] in a line: Stability of the compound under natural condition at 25 degC for 24 hr. In kind it is physicochemical.
Series [12] has as its system Spodoptera litura. The experiment in a line: Ovicidal activity against […] Spodoptera litura in paraffin paper assessed as egg mortality at 1 to 4 ppm at 25 degC, 65% RH measured after 7 days by egg dipping method. Type of series: functional.
For series [13], the system named is Spodoptera litura. As to the kind of experiment: Metabolic stability in homogenized Spodoptera litura larvae. In kind it is ADME, organism-based. Conditions: in vivo.

With `O=C(NC(=O)c1c(F)cccc1F)Nc1cc(F)c(OC(F)(F)F)cc1F`, the mortality (in general, the share of the test organisms that died) at 0.5 ppm in the series with Spodoptera litura [1] was above 90%. In addition, the mortality at 0.1 ppm with Mythimna separata [2] and in the series on Spodoptera litura [3] was above 90% in each case.
With `O=C(NC(=O)c1c(F)cccc1F)Nc1ccc(OC(F)(F)F)c(F)c1F`, in the series with Spodoptera litura [1], the mortality at 0.5 ppm is above 90%. Also, the mortality at 0.1 ppm with Mythimna separata [2] and in the series on Spodoptera litura [3] was above 90% in each case.
With `O=c1nc(-c2ccccc2C(F)(F)F)sn1-c1ccc(OC(F)(F)F)cc1`, the mortality at 31 ppm in the series with Spodoptera litura [4] and with Mythimna separata [5] was below 90% each time. Also, the mortality at 125 ppm with Spodoptera litura [6] is below 90%.
For `O=c1nc(-c2c(F)cccc2F)sn1-c1cc(Cl)c(F)c(Cl)c1F`, the mortality at 31 ppm in the series with Spodoptera litura [4] and in the series with Mythimna separata [5] was below 90% each time. Moreover, in the series on Spodoptera litura [7], the mortality was above 90%.
As to `O=c1nc(-c2ccccc2Cl)sn1-c1ccc(Cl)cc1`, the mortality at 31 ppm with Mythimna separata [5] was below 90%. The mortality at 125 ppm with Spodoptera litura [6] is below 90%.
Consider `O=c1nc(-c2ccccc2Cl)sn1-c1ccc(OC(F)(F)F)cc1`, for which the mortality with Spodoptera litura [8], with Mythimna separata [9] and in the series with Spodoptera litura [12] was above 90% each time. Besides, the dose excreted in series [10] came to 3.5%. The Stability result in series [11] is on record as “Stable”. Besides, the Drug recovery in the series on Spodoptera litura [13] was 10.4%.
